Assay results from US6040303A, “7-phenyl-1, 4-diazepane compounds, process for their preparation, and pharmaceutical compositions containing them” (Solvay Pharmaceuticals GmbH, priority 1997, dated 2000).

How the values were obtained:
human NK-1 receptors = molecular target: T1, human NK-1 receptors (Homo sapiens, UniProt P25103); experiment: Binding affinity to human NK-1 receptors ([3H]-substance P displacement, membranes of CHO cells); details: membrane preparation of CHO cells expressing human NK-1 receptor, Ki calculated from IC50, read-out: In vitro binding to human NK-1 receptors - Ki value
T1 construct: expressed in transfected cells; host or cells: CHO cells (membrane preparation)
T1 sequence (P25103 whole entry): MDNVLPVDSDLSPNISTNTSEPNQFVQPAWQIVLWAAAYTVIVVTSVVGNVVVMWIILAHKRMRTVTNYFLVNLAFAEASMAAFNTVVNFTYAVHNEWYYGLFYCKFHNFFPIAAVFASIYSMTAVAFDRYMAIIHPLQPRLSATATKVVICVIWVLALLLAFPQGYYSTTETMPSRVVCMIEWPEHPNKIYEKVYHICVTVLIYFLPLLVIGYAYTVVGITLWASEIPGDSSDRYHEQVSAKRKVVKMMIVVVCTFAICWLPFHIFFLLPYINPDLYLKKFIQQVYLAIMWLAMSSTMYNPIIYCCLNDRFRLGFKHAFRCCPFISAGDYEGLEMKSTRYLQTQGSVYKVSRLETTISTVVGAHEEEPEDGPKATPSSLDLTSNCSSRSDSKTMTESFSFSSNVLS
Procedure: 1. Determination of the binding power of the test substances to NK-1 receptors.
The affinity of the test substances to human NK-1 receptors was measured in vitro, and the inhibition of the binding of the physiological neurokinin substance P to neurokinin-1 receptors was determined.
The receptor binding studies were performed with [^3 H]-substance P as ligand. For the binding test, different samples of a membrane preparation of CHO cells (=egg cells of the Chinese hamster, […]), which express the human NK-1 receptor, were incubated with a solution of the marked ligand, with the incubation mixtures containing no test substance or additions of different concentrations of test substance. Then, bound and free ligands in each of the samples were separated with the aid of glass-fiber filtration. The fraction remaining in the filter was washed several times with buffer solution, and then the radioactivity of the fraction remaining in the filter was measured using a beta scintillation counter. That concentration which effects half maximum displacement of the bound ligand was determined as IC50 of the respective test substance. From this, the corresponding inhibition constant (Ki value) of the test substance was calculated.
The example numbers listed for the compounds of Formula I relate to the following preparative examples.

[1] = test system: stool passage through the colon of the rat; experiment: Influencing of colon passage: barium sulfate elimination after oral administration in rats; format: in vivo
Procedure: 2. Investigation of the activity of the compounds on stool passage through the colon of the rat.
The effects of the test substances on the transport of stools through the large intestine were examined in rats after feeding. After feeding, the beginning of elimination and the mean dwell time of barium sulfate in the colon were determined as a measurement of the colon motility leading to elimination of stools.
After oral administration of the test substance, the animals were administered 2 ml of an 80% barium sulfate suspension via an artificial outlet at the caecum. The animals were placed in metabolism cages, and the faeces were collected at one hour intervals over 24 hours. The content of barium sulfate in the faeces was measured using radiography, and the beginning of elimination of barium sulfate and the mean retention time were determined therefrom. The delays in the beginning of elimination and prolongations of the mean residence time of the barium sulfate achieved in this experimental arrangement with various doses of the test substance of Example 1 can be seen from the following Table 2. The time interval up to the beginning of elimination and the mean retention time are given in percentages relative to the values obtained in a control test without test substance (=100%).

[2] = test system: visceral sensitivity to pain in rats (distension-induced contractions of the abdominal muscles); experiment: Influencing of the visceral sensitivity to pain: distension-induced abdominal contractions in rats; format: in vivo; details: rat, subcutaneous, 20 minutes after administration
Text: 3. Investigation of the activity of the compounds on the visceral sensitivity to pain in rats.
Visceral pain leads to visceral reactions which manifest themselves, inter alia, by contractions of the abdominal muscles. The number of contractions of the abdominal muscles occurring after a mechanical pain stimulus caused by distending the large intestine is thus a measurement for determining the visceral sensitivity to pain.
The inhibiting activity of the test substances on distension-induced abdominal contractions was tested in rats. The distension of the large intestine with an introduced balloon was used as the stimulus; the contraction of the abdominal muscles was measured as response. One hour after the sensitising of the large intestine by instillation of dilute acetic acid (0.6%, 1.5 ml), a latex balloon was introduced and inflated to 100 mbar for 10 minutes. During this time, the contractions of the abdominal muscles were counted. 20 minutes after subcutaneous administration of the test substance, this measurement was repeated. The activity of the test substance was calculated as a percentage reduction in the counted contractions compared with the control. The reductions in the number of abdominal contractions achieved with different doses of the test substance of Example 1 are listed in percentages, relative to the control values (=100%) measured before ingestion of the substance in the following Table 3.

With `COc1ccccc1CN(C)CCCC(=O)N1CCC(c2ccccc2)N(C(=O)c2cc(C(F)(F)F)cc(C(F)(F)F)c2)CC1` (single isomer, unassigned; (-)) [Example 2, (-)-1-(3,5-bistrifluoromethylbenzoyl)-4-{[3-[N-(2-methoxybenzyl)-N-methyl]amino]propylcarbonyl}-7-phenyl-1,4-diazepane] the Ki (human NK-1 receptors) was 10 nM.

In the case of `COc1ccccc1CN(C)CCCC(=O)N1CCC(c2ccccc2)N(C(=O)c2cc(C(F)(F)F)cc(C(F)(F)F)c2)CC1` (stereo not shown) [Example 1, 1-(3,5-bistrifluoromethylbenzoyl)-4-{[3-[N-(2-methoxybenzyl)-N-methyl]amino]propylcarbonyl}-7-phenyl-1,4-diazepane], the “Mean retention time in % relative to control value = 100%” value ([1]; 10 μmole/kg) is reported as 98%, the “Time interval until beginning of elimination in % relative to control value = 100%” value ([1]; 10 μmole/kg) is reported as 100% and the “Mean retention time in % relative to control value = 100%” value ([1]; 21.5 μmole/kg) is reported as 106%. The “Time interval until beginning of elimination in % relative to control value = 100%” value ([1]; 21.5 μmole/kg) was 115%, the “Mean retention time in % relative to control value = 100%” value ([1]; 100 μmole/kg) was 119% and the “Time interval until beginning of elimination in % relative to control value = 100%” value ([1]; 100 μmole/kg) was 138%. For the same compound, the “Reduction in the number of distension-induced contractions of the abdominal muscles in % relative to control value = 100%” value ([2]; 10 μmole/kg) was 33%, the “Reduction in the number of distension-induced contractions of the abdominal muscles in % relative to control value = 100%” value ([2]; 21.5 μmole/kg) was 39% and the “Reduction in the number of distension-induced contractions of the abdominal muscles in % relative to control value = 100%” value ([2]; 100 μmole/kg) was 61%. The Ki (human NK-1 receptors) was 12 nM.

`COc1ccccc1CNCC(=O)N1CCC(c2ccccc2)N(C(=O)c2cc(C)cc(C)c2)CC1` (stereo not shown) [Example 4, 1-(3,5-dimethylbenzoyl)-4-{[N-(2-methoxybenzyl)amino]acetyl}-7-phenyl-1,4-diazepane] showed a Ki (human NK-1 receptors) of 8 nM.

`COc1ccccc1CNCCCC(=O)N1CCC(c2ccccc2)N(C(=O)c2cc(C(F)(F)F)cc(C(F)(F)F)c2)CC1` (stereo not shown) [Example 14] gave a Ki (human NK-1 receptors) of 10 nM.
